In patent EP0076478A1, “Linear kinetic determination of bicarbonate in body fluids” (BOEHRINGER MANNHEIM CORPORATION, priority 1981, dated 1983):

What was measured:
Type in all cases: biochemical
[1] = molecular target: T1, MDH (porcine heart) (Sus scrofa, UniProt P00346); experiment: Separate enzyme assay of MDH in the presence of varying amounts of oxamate
T1 construct: purchased Boehringer Mannheim Corporation, Indianapolis, Indiana
T1 sequence (P00346 25-338): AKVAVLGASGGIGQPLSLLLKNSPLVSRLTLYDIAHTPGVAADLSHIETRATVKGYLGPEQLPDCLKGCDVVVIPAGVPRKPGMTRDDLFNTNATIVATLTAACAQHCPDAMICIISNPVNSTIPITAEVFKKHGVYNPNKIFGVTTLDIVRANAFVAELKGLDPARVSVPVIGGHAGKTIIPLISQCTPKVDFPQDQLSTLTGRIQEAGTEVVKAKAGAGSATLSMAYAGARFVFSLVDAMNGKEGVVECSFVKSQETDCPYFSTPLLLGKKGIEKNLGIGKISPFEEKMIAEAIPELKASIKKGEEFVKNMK

[2] = tested on: LDH; experiment: Inhibition of reaction III (oxidation of NADH by pyruvate, catalysed by serum LDH) by oxamate; details: for NADH oxidized: 10 minutes, 340 nm, 37°C
Experimental: Using the same materials and methodology of the end-point determination described in Example III, the effectiveness of oxamate as an inhibitor of reaction III was determined. First, reaction III was followed by […] of oxamate to serum.with normal and supranormal LDH activities up to 2000 U/1 (one U/1 is an enzyme activity unit which catalyzes the transformation of one micromole per liter of pyruvate per minute at 37°C). In order to magnify the spectrophotometric signal, the sample volume was increased from 7.5 microliters to 50 microliters. The oxidation of NADH was followed for 10 minutes at 340 nm and 37°C, and the concentration of NADH oxidized was calculated from the change in absorbance over the 10 minute period.

[3] = tested on: PEPC (wheat germ); experiment: Separate enzyme assay of PEPC in the presence of varying amounts of oxamate; details: for PEPC % Activity: average of three replicates
[4] = concentrations of oxamate up to 40 mmol/l

## NC(=O)C(=O)[O-].[Na+] [oxamate, sodium oxamate]
[1]; Oxamate 5 mmol/l, average of three replicates
  activity at 5000 µM: 102 ± 2%
[1]; Oxamate 10 mmol/l, average of three replicates
  activity at 10000 µM: 102 ± 2%
[1]; Oxamate 20 mmol/l, average of three replicates
  activity at 20000 µM: 99 ± 1%
[1]; Oxamate 40 mmol/l, average of three replicates
  activity at 40000 µM: 98 ± 5%
[1]; Oxamate 80 mmol/l, average of three replicates
  activity at 80000 µM: 92 ± 2%
[1]; [4]
  effect on MDH: no effect
[1]; varying amounts of oxamate
  effect on MDH: no significant effect
[2]; 2.5 mmol/l oxamate, serum LDH 282 U/l, 2 mmol/l pyruvate added
  NADH oxidized: 0 µmol/L
[2]; 2.5 mmol/l oxamate, serum LDH 334 U/l, 2 mmol/l pyruvate added
  NADH oxidized: 1.3 µmol/L
[2]; 2.5 mmol/l oxamate, serum LDH 340 U/l, 2 mmol/l pyruvate added
  NADH oxidized: 1.3 µmol/L
[2]; 2.5 mmol/l oxamate, serum LDH 402 U/l, 2 mmol/l pyruvate added
  NADH oxidized: 0 µmol/L
[2]; 2.5 mmol/l oxamate, serum LDH 508 U/l, 2 mmol/l pyruvate added
  NADH oxidized: 3.5 µmol/L
[2]; 2.5 mmol/l oxamate, serum LDH 600 U/l, 2 mmol/l pyruvate added
  NADH oxidized: 2.6 µmol/L
[2]; 2.5 mmol/l oxamate, serum LDH 1200 U/l, 2 mmol/l pyruvate added
  NADH oxidized: 7.7 µmol/L
[2]; 2.5 mmol/l oxamate, serum LDH 1470 U/l, sample not spiked with pyruvate
  NADH oxidized: 1.0 µmol/L
[2]; 2.5 mmol/l oxamate, serum LDH normal (average of 10 normal sera), 2 mmol/l pyruvate added
  NADH oxidized: 1.4 µmol/L
[2]; 5 mmol/l oxamate, serum LDH 282 U/l, 2 mmol/l pyruvate added
  NADH oxidized: 0 µmol/L
[2]; 5 mmol/l oxamate, serum LDH 334 U/l, 2 mmol/l pyruvate added
  NADH oxidized: 0.3 µmol/L
[2]; 5 mmol/l oxamate, serum LDH 340 U/l, 2 mmol/l pyruvate added
  NADH oxidized: 0 µmol/L
[2]; 5 mmol/l oxamate, serum LDH 402 U/l, 2 mmol/l pyruvate added
  NADH oxidized: 0 µmol/L
[2]; 5 mmol/l oxamate, serum LDH 508 U/l, 2 mmol/l pyruvate added
  NADH oxidized: 0.3 µmol/L
[2]; 5 mmol/l oxamate, serum LDH 600 U/l, 2 mmol/l pyruvate added
  NADH oxidized: 0.2 µmol/L
[2]; 5 mmol/l oxamate, serum LDH 1200 U/l, 2 mmol/l pyruvate added
  NADH oxidized: 0.9 µmol/L
[2]; 5 mmol/l oxamate, serum LDH 1470 U/l, sample not spiked with pyruvate
  NADH oxidized: 0 µmol/L
[2]; 5 mmol/l oxamate, serum LDH normal (average of 10 normal sera), 2 mmol/l pyruvate added
  NADH oxidized: 0.5 µmol/L
[2]; 10 mmol/l oxamate, serum LDH 282 U/l, 2 mmol/l pyruvate added
  NADH oxidized: 0 µmol/L
[2]; 10 mmol/l oxamate, serum LDH 334 U/l, 2 mmol/l pyruvate added
  NADH oxidized: 0 µmol/L
[2]; 10 mmol/l oxamate, serum LDH 340 U/l, 2 mmol/l pyruvate added
  NADH oxidized: 0 µmol/L
[2]; 10 mmol/l oxamate, serum LDH 402 U/l, 2 mmol/l pyruvate added
  NADH oxidized: 0 µmol/L
[2]; 10 mmol/l oxamate, serum LDH 508 U/l, 2 mmol/l pyruvate added
  NADH oxidized: 0.1 µmol/L
[2]; 10 mmol/l oxamate, serum LDH 600 U/l, 2 mmol/l pyruvate added
  NADH oxidized: 0 µmol/L
[2]; 10 mmol/l oxamate, serum LDH 1200 U/l, 2 mmol/l pyruvate added
  NADH oxidized: 0.3 µmol/L
[2]; 10 mmol/l oxamate, serum LDH 1470 U/l, sample not spiked with pyruvate
  NADH oxidized: 0 µmol/L
[2]; 10 mmol/l oxamate, serum LDH 2000 U/l, 2 mmol/l pyruvate added
  NADH oxidized: 0 µmol/L
[2]; 10 mmol/l oxamate, serum LDH normal (average of 10 normal sera), 2 mmol/l pyruvate added
  NADH oxidized: 0.3 µmol/L
[2]; 20 mmol/l oxamate, serum LDH 282 U/l, 2 mmol/l pyruvate added
  NADH oxidized: 0 µmol/L
[2]; 20 mmol/l oxamate, serum LDH 334 U/l, 2 mmol/l pyruvate added
  NADH oxidized: 0 µmol/L
[2]; 20 mmol/l oxamate, serum LDH 340 U/l, 2 mmol/l pyruvate added
  NADH oxidized: 0 µmol/L
[2]; 20 mmol/l oxamate, serum LDH 402 U/l, 2 mmol/l pyruvate added
  NADH oxidized: 0 µmol/L
[2]; 20 mmol/l oxamate, serum LDH 508 U/l, 2 mmol/l pyruvate added
  NADH oxidized: 0 µmol/L
[2]; 20 mmol/l oxamate, serum LDH 600 U/l, 2 mmol/l pyruvate added
  NADH oxidized: 0 µmol/L
[2]; 20 mmol/l oxamate, serum LDH 1200 U/l, 2 mmol/l pyruvate added
  NADH oxidized: 0 µmol/L
[2]; 20 mmol/l oxamate, serum LDH 1470 U/l, sample not spiked with pyruvate
  NADH oxidized: 0 µmol/L
[2]; 20 mmol/l oxamate, serum LDH 2000 U/l, 2 mmol/l pyruvate added
  NADH oxidized: 0 µmol/L
[2]; 20 mmol/l oxamate, serum LDH normal (average of 10 normal sera), 2 mmol/l pyruvate added
  NADH oxidized: 0 µmol/L
[2]; oxamate concentration of 10-20 mmol/l
  LDH activity: completely inhibited
[3]; Oxamate 5 mmol/l
  PEPC % Activity: 102 ± 2%
[3]; Oxamate 10 mmol/l
  PEPC % Activity: 95 ± 11%
[3]; Oxamate 20 mmol/l
  PEPC % Activity: 103 ± 1%
[3]; Oxamate 40 mmol/l
  PEPC % Activity: 99 ± 2%
[3]; Oxamate 80 mmol/l
  PEPC % Activity: 86 ± 4%
[3]; [4]
  effect on PEPC: no effect
[3]; varying amounts of oxamate
  effect on PEPC: no significant effect
